From ChEMBL document CHEMBL3885861, “Open TG-GATES”

Species on record: Rattus norvegicus
Test: Open TG-GATES - Regimen: Single
Format: toxicity, organism-based, Sprague-Dawley
Parameters: regimen Single, gender Male, age 6 weeks
Settings: in vivo, po, route gavage; for APTT / Bas / Eos / Fbg / Hb / Lym / MCH / MCHC / MCV / Mono / Neu / PT / Plat / RBC / Ret / WBC: tissue Blood; for KIDNEY_L / KIDNEY_R / KIDNEY_TOTAL: tissue Kidney; for LIVER: tissue Liver; for ALP / ALT / AST / BUN / CRE / Ca / Cl / DBIL / GLC / IP / K / LDH / Na / PL / RALB / TBIL / TC / TG / TP / gamma-GTP: tissue Plasma
[1] = 0 mg/kg, 3 h, dose level Control
[2] = 0 mg/kg, 6 h, dose level Control
[3] = 0 mg/kg, 9 h, dose level Control
[4] = 0 mg/kg, 24 h, dose level Control

## OCCN1CCN(CCCN2c3ccccc3Sc3ccc(C(F)(F)F)cc32)CC1 [FLUPHENAZINE]
[1]
  TERMINAL_BW: 199 g
  APTT: 16.1 s
  Bas: 0%
  Eos: 0.6%
  Fbg: 228.2 mg/dL
  Hb: 13.1 g/dL
  Lym: 80.4%
  MCH: 21.2 pg
  MCHC: 33%
  MCV: 64.3 fL
  Mono: 6.8%
  Neu: 12.2%
  PT: 12.5 s
  Plat: 106.1 x10_4/uL
  RBC: 617.6 x10_4/ul
  Ret: 7.6%
  WBC: 113.1 x10_2/uL
  KIDNEY_L: 0.9 g
  KIDNEY_R: 0.9 g
  KIDNEY_TOTAL: 1.9 g
  LIVER: 9.6 g
  ALP: 888.6 IU/L
  ALT: 34.8 IU/L
  AST: 63.4 IU/L
  BUN: 13 mg/dL
  CRE: 0.5 mg/dL
  Ca: 10.9 mg/dL
  Cl: 104.2 meq/L
  DBIL: 0.006 mg/dL
  GLC: 179 mg/dL
  IP: 10.3 mg/dL
  K: 5.1 meq/L
  LDH: 86.2 IU/L
  Na: 138 meq/L
  PL: 154.2 mg/dL
  RALB: 3.9 g/dL
  TBIL: 0.3 mg/dL
  TC: 85.8 mg/dL
  TG: 53.6 mg/dL
  TP: 5.5 g/dL
  gamma-GTP: 1.4 IU/L
[2]
  TERMINAL_BW: 196.6 g
  APTT: 16.4 s
  Bas: 0%
  Eos: 1%
  Fbg: 214.4 mg/dL
  Hb: 13 g/dL
  Lym: 75.8%
  MCH: 21.6 pg
  MCHC: 33.2%
  MCV: 65.1 fL
  Mono: 8.2%
  Neu: 15.4%
  PT: 12.8 s
  Plat: 108.7 x10_4/uL
  RBC: 601.2 x10_4/ul
  Ret: 8.4%
  WBC: 105.2 x10_2/uL
  KIDNEY_L: 0.9 g
  KIDNEY_R: 0.9 g
  KIDNEY_TOTAL: 1.8 g
  LIVER: 8.6 g
  ALP: 819.6 IU/L
  ALT: 33.6 IU/L
  AST: 67.4 IU/L
  BUN: 11.2 mg/dL
  CRE: 0.5 mg/dL
  Ca: 10.2 mg/dL
  Cl: 105.8 meq/L
  DBIL: 0.03 mg/dL
  GLC: 180.8 mg/dL
  IP: 10 mg/dL
  K: 4.7 meq/L
  LDH: 93 IU/L
  Na: 137 meq/L
  PL: 118.2 mg/dL
  RALB: 3.6 g/dL
  TBIL: 0.4 mg/dL
  TC: 65.8 mg/dL
  TG: 36.8 mg/dL
  TP: 5.3 g/dL
  gamma-GTP: 1.6 IU/L
[3]
  TERMINAL_BW: 197.8 g
  APTT: 16.6 s
  Bas: 0%
  Eos: 0.8%
  Fbg: 220.8 mg/dL
  Hb: 12.6 g/dL
  Lym: 77.6%
  MCH: 21.7 pg
  MCHC: 33.1%
  MCV: 65.6 fL
  Mono: 9%
  Neu: 13.2%
  PT: 12.5 s
  Plat: 111.9 x10_4/uL
  RBC: 581.6 x10_4/ul
  Ret: 8.6%
  WBC: 107.8 x10_2/uL
  KIDNEY_L: 0.9 g
  KIDNEY_R: 0.9 g
  KIDNEY_TOTAL: 1.9 g
  LIVER: 8.6 g
  ALP: 831.6 IU/L
  ALT: 29.2 IU/L
  AST: 58.8 IU/L
  BUN: 11.8 mg/dL
  CRE: 0.5 mg/dL
  Ca: 10.3 mg/dL
  Cl: 103.8 meq/L
  DBIL: 0.012 mg/dL
  GLC: 186.4 mg/dL
  IP: 10.2 mg/dL
  K: 4.6 meq/L
  LDH: 86.4 IU/L
  Na: 137.2 meq/L
  PL: 145 mg/dL
  RALB: 3.7 g/dL
  TBIL: 0.3 mg/dL
  TC: 84.6 mg/dL
  TG: 46.8 mg/dL
  TP: 5.4 g/dL
  gamma-GTP: 1.2 IU/L
[4]
  TERMINAL_BW: 211.2 g
  APTT: 16.8 s
  Bas: 0%
  Eos: 0.2%
  Fbg: 217.6 mg/dL
  Hb: 12.9 g/dL
  Lym: 80.8%
  MCH: 22.4 pg
  MCHC: 33.4%
  MCV: 67.1 fL
  Mono: 7.4%
  Neu: 11.4%
  PT: 12 s
  Plat: 113.4 x10_4/uL
  RBC: 574.6 x10_4/ul
  Ret: 8%
  WBC: 137.9 x10_2/uL
  KIDNEY_L: 0.9 g
  KIDNEY_R: 1 g
  KIDNEY_TOTAL: 1.9 g
  LIVER: 10.7 g
  ALP: 951.8 IU/L
  ALT: 38.6 IU/L
  AST: 69.6 IU/L
  BUN: 18.8 mg/dL
  CRE: 0.5 mg/dL
  Ca: 11.1 mg/dL
  Cl: 104.2 meq/L
  DBIL: 0.012 mg/dL
  GLC: 183.8 mg/dL
  IP: 8.8 mg/dL
  K: 4.9 meq/L
  LDH: 107.4 IU/L
  Na: 137.4 meq/L
  PL: 160.8 mg/dL
  RALB: 4 g/dL
  TBIL: 0.3 mg/dL
  TC: 80 mg/dL
  TG: 134.2 mg/dL
  TP: 5.8 g/dL
  gamma-GTP: 1.8 IU/L
2 mg/kg, 3 h, dose level Low
  TERMINAL_BW: 193.4 g
  APTT: 16.5 s
  Bas: 0%
  Eos: 0.8%
  Fbg: 231.2 mg/dL
  Hb: 13.2 g/dL
  Lym: 76.6%
  MCH: 21.9 pg
  MCHC: 33.2%
  MCV: 65.9 fL
  Mono: 8.2%
  Neu: 14.6%
  PT: 12.5 s
  Plat: 111 x10_4/uL
  RBC: 605.2 x10_4/ul
  Ret: 7.9%
  WBC: 105.8 x10_2/uL
  KIDNEY_L: 0.9 g
  KIDNEY_R: 0.9 g
  KIDNEY_TOTAL: 1.8 g
  LIVER: 8.9 g
  ALP: 678.4 IU/L
  ALT: 29.6 IU/L
  AST: 56.4 IU/L
  BUN: 10.8 mg/dL
  CRE: 0.5 mg/dL
  Ca: 10.5 mg/dL
  Cl: 105.2 meq/L
  DBIL: 0.012 mg/dL
  GLC: 193.4 mg/dL
  IP: 10.4 mg/dL
  K: 4.8 meq/L
  LDH: 84 IU/L
  Na: 137.8 meq/L
  PL: 148 mg/dL
  RALB: 3.9 g/dL
  TBIL: 0.3 mg/dL
  TC: 88.8 mg/dL
  TG: 40 mg/dL
  TP: 5.6 g/dL
  gamma-GTP: 2.4 IU/L
2 mg/kg, 6 h, dose level Low
  TERMINAL_BW: 197 g
  APTT: 16.5 s
  Bas: 0%
  Eos: 0.8%
  Fbg: 220.8 mg/dL
  Hb: 13 g/dL
  Lym: 75.4%
  MCH: 21.5 pg
  MCHC: 33%
  MCV: 65.3 fL
  Mono: 8.6%
  Neu: 15.6%
  PT: 12.4 s
  Plat: 113.3 x10_4/uL
  RBC: 606.4 x10_4/ul
  Ret: 8.7%
  WBC: 86.8 x10_2/uL
  KIDNEY_L: 0.9 g
  KIDNEY_R: 0.9 g
  KIDNEY_TOTAL: 1.8 g
  LIVER: 8.5 g
  ALP: 708.4 IU/L
  ALT: 32.4 IU/L
  AST: 57.2 IU/L
  BUN: 10.2 mg/dL
  CRE: 0.5 mg/dL
  Ca: 10.2 mg/dL
  Cl: 105.8 meq/L
  DBIL: 0.002 mg/dL
  GLC: 184.2 mg/dL
  IP: 10.2 mg/dL
  K: 4.8 meq/L
  LDH: 84.8 IU/L
  Na: 136.8 meq/L
  PL: 150.6 mg/dL
  RALB: 3.7 g/dL
  TBIL: 0.4 mg/dL
  TC: 92.4 mg/dL
  TG: 33.6 mg/dL
  TP: 5.3 g/dL
  gamma-GTP: 2.2 IU/L
2 mg/kg, 9 h, dose level Low
  TERMINAL_BW: 192.1 g
  APTT: 16.7 s
  Bas: 0%
  Eos: 0.6%
  Fbg: 223 mg/dL
  Hb: 13.1 g/dL
  Lym: 74.2%
  MCH: 21.6 pg
  MCHC: 33%
  MCV: 65.5 fL
  Mono: 6.6%
  Neu: 19%
  PT: 12.3 s
  Plat: 113.3 x10_4/uL
  RBC: 609.2 x10_4/ul
  Ret: 7.9%
  WBC: 62.2 x10_2/uL
  KIDNEY_L: 0.9 g
  KIDNEY_R: 0.9 g
  KIDNEY_TOTAL: 1.8 g
  LIVER: 8.1 g
  ALP: 829.8 IU/L
  ALT: 27.4 IU/L
  AST: 54.4 IU/L
  BUN: 9 mg/dL
  CRE: 0.5 mg/dL
  Ca: 9.9 mg/dL
  Cl: 104.4 meq/L
  DBIL: 0.022 mg/dL
  GLC: 176.8 mg/dL
  IP: 10 mg/dL
  K: 4.5 meq/L
  LDH: 81.6 IU/L
  Na: 137.2 meq/L
  PL: 135.4 mg/dL
  RALB: 3.6 g/dL
  TBIL: 0.3 mg/dL
  TC: 79.4 mg/dL
  TG: 33.2 mg/dL
  TP: 5.3 g/dL
  gamma-GTP: 2.2 IU/L
2 mg/kg, 24 h, dose level Low
  TERMINAL_BW: 213 g
  APTT: 17 s
  Bas: 0%
  Eos: 0.8%
  Fbg: 209.8 mg/dL
  Hb: 13.1 g/dL
  Lym: 86.2%
  MCH: 21.7 pg
  MCHC: 33.2%
  MCV: 65.4 fL
  Mono: 4%
  Neu: 9.2%
  PT: 12.2 s
  Plat: 117 x10_4/uL
  RBC: 605.6 x10_4/ul
  Ret: 7.7%
  WBC: 112.3 x10_2/uL
  KIDNEY_L: 0.9 g
  KIDNEY_R: 0.9 g
  KIDNEY_TOTAL: 1.9 g
  LIVER: 10.8 g
  ALP: 934.6 IU/L
  ALT: 32.6 IU/L
  AST: 56.6 IU/L
  BUN: 22.2 mg/dL
  CRE: 0.5 mg/dL
  Ca: 11 mg/dL
  Cl: 104.2 meq/L
  DBIL: 0.014 mg/dL
  GLC: 178.8 mg/dL
  IP: 7.5 mg/dL
  K: 5.1 meq/L
  LDH: 92.8 IU/L
  Na: 136.6 meq/L
  PL: 166.6 mg/dL
  RALB: 4.1 g/dL
  TBIL: 0.3 mg/dL
  TC: 82.6 mg/dL
  TG: 139.2 mg/dL
  TP: 6 g/dL
  gamma-GTP: 1.6 IU/L
